How the values were obtained:
[1] = Displacement of [3H]prazosin from alpha-1-adrenergic receptor of calf neocortical membrane; design: species or system Bos taurus
[2] = Displacement of [3H]clonidine from alpha-2-adrenergic receptor of calf neocortical membrane; design: species or system Bos taurus
Bos taurus = species: Bos taurus; assay: Relative affinity for alpha-1 and alpha-2 adrenergic receptors; design: reference not given here

SMILES | Kd ([1]; read-out: Kd) [nM] | Kd [2] [nM] | Ratio (Bos taurus) | Kd [1] [nM]
Clc1cncc(N2CCNCC2)n1 [MK-212] | 2400 | 150 | 16 | –
Clc1cn2ccnc2c(N2CCNCC2)n1 | 250 | 88 | 2.8 | –
c1cn2ccnc2c(N2CCNCC2)n1 | 3100 | 19 | 160 | –
Clc1cnc2c(N3CCNCC3)nccn12 | 2780 | 290 | 9.6 | –
Clc1cn2c(Cl)cnc2c(N2CCNCC2)n1 | 410 | 1000 | 0.4 | –
Clc1cnc2cnc(N3CCNCC3)cn12 | 6800 | 18900 | 0.36 | –
c1cn2c(N3CCNCC3)cncc2n1 | 51000 | 28100 | 1.8 | –
c1ccc(-c2cn3ccnc3c(N3CCNCC3)n2)cc1 | 360 | 1800 | 0.2 | –
CN1CCN(c2nc(Cl)cn3ccnc23)CC1 | 380 | 144 | 2.6 | –
Clc1cn2c3c(nc2c(N2CCNCC2)n1)CCCC3 | 200 | 1500 | 0.13 | –
Cc1cnc2c(N3CCNCC3)nc(Cl)cn12 | 160 | 250 | 0.64 | –
c1ccc2c(c1)N=C(N1CCNCC1)C1=NCCN12 | 1300 | 1800 | 0.72 | –
ClC1=CN2CCN=C2C(N2CCNCC2)=N1 | 3000 | 1600 | 1.9 | –
CN1CCN2c3ccccc3Cc3ccccc3C2C1 (configuration not stated) [MIANSERIN] | – | 19 | 2.3 | 43
